According to patent US20250312469A1 (CANGET BIOTEKPHARMA, priority 2024, published 2025):

Columns and labels:
Whole blood stability = assay type: in vitro ADME, human
Method: Both matrices were adjusted to pH 7.4 prior to initiating the experiments. A DMSO stock as first prepared for the test article. […] The vials were kept in a benchtop Thermomixer for the duration of the experiment. Aliquots (100 μL) were taken at each time point (0, 15, 30, 60, and 120 minutes) and added to 96-well plates which had been pre-filled with 300 μL of acetonitrile (ACN). Samples were stored at 4° C. until the end of the experiment. […] Analytical conditions are outlined in Appendix 1.

USP2a = target: T1, USP2a (Homo sapiens, UniProt O75604); experiment: ProtoArray protein microarray probed with 3H-FL118; assay type: binding; parameters: purchased Invitrogen ProtoArray Human Protein Microarray v5.0; conditions: 3H-FL118 0.5 μM
T1 sequence (O75604 1-605): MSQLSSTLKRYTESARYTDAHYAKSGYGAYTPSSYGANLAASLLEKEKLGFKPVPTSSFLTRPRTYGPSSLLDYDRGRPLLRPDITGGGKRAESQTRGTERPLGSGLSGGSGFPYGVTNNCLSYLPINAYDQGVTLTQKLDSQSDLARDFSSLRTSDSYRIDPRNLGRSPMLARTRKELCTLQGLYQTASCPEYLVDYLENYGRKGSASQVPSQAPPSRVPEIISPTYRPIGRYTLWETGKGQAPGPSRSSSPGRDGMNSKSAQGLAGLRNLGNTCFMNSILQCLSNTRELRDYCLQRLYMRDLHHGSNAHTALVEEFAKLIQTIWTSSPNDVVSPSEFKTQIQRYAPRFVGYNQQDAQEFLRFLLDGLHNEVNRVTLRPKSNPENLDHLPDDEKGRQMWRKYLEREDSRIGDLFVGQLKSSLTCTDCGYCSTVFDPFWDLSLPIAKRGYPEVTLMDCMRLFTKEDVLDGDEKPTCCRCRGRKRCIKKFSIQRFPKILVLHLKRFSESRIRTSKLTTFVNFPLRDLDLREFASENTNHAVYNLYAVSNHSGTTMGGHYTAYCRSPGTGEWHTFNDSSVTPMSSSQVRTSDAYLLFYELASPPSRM
Method: (§1) The flask was then immersed in silicone oil bath at 180° C.-190° C. for 6 hours. The tritium gas was removed. The reaction mixture was dissolved in 1 mL of DMSO and back-exchanged 10× with 50% ethanol. Injected directly to CapCeLL PAK C-18 column (4.6×250 mm), mobile phase 30% CH3CN, 0.1% TFA, flow 1 mL/min, U.V. =200 nm, r.t. =40 min. After purification, total activity was 5 mCi (solid) with a specificity of 5.6 Ci/mmol at a radiochemical purity of >97% for ^3H-FL118. […] The flask was then immersed in silicone oil bath at 190° C. for 24 h. The tritium gas was removed. The reaction mixture was dissolved in 1 mL of DMSO and back-exchanged 10× with 50% ethanol and injected directly to CapCeLL Pak C-18 column (4.6×250 mm), mobile phase 30% CH3CN, 0.1% TFA, […], U.V. =200 nm, r.t. =40 min. After purification total activity was 5 mCi (solid) with a specificity of 16.5 Ci/mmol at a radiochemical purity of ≥81% for ^3H-FL118.
(§2) Use of ^3H-FL118 as a radioactive probe to search FL118-binding proteins through screening of human protein microarray (ProtoArray R with 9,400 human proteins, Invitrogen): The study process includes the following steps.
(§3) 1. Blocking the ProtoArray: (i) Immediately place the mailer containing the Human Protein Microarray v5.0 at 4° C. upon removal from storage at −20° C. and equilibrate the mailer at 4° C. for at least 15 minutes prior to use. (ii) Place Human Protein Microarrays with the barcode facing up in the bottom of a 4-chamber incubation tray such that the barcode end of the microarray is near the tray end containing an indented numeral. […] Avoid pipetting buffer directly onto the array surface. (iv) Incubate the tray for 1 hour at 4° C. on a shaker set at 50 rpm (circular shaking). (v) After incubation, remove Protein Microarrays from FL118 Assay Buffer. To remove array from the 4-chamber incubation tray, insert the tip of forceps into the indented numeral end and gently pry the array upward. Using a gloved hand, pick up the microarray by holding the array by its edges only. Tap to remove excess liquid from slide surface. (vi) Proceed immediately to Probing the Array.
(§4) 2. Probing the ProtoArray: (i) Place each ProtoArray horizontally in a separate sterile 50 mL conical tube with about ⅓ of the array extended outside of the tube. The barcoded end of the array should protrude from the tube (face up). (ii) For each ProtoArray, add 100 μL of probing mixture including ^3H-FL118 (final concentration of ^3H-FL118 at 0.1 μM and 0.5 μM, respectively on different ProtoArray) and the positional mapping reagent ^3H-estradiol and pipet the mixture gently onto the surface of the ProtoArray. (iii) Gently place a coverslip over the surface of the ProtoArray using forceps to avoid capturing bubbles. […]

UbE2T = target: T2, UbE2T (Homo sapiens, UniProt Q9NPD8); experiment: ProtoArray protein microarray probed with 3H-FL118; assay type: binding; parameters: purchased Invitrogen ProtoArray Human Protein Microarray v5.0; conditions: 3H-FL118 0.5 μM
T2 sequence (Q9NPD8 1-197): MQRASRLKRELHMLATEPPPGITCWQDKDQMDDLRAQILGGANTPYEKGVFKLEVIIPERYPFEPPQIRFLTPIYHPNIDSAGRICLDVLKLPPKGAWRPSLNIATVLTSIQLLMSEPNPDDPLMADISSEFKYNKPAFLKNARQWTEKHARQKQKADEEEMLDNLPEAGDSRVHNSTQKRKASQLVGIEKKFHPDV
Method: as §1, §2, §3, §4

CCC1(O)C(=O)OCc2c1cc1n(c2=O)Cc2cc3cc4c(cc3nc2-1)OCO4 (centres unmarked) [FL118]
half-life (Whole blood stability; 0.5 μM): long half-life
Percent Remaining (Whole blood stability; Human Whole Blood, 0 min): 100%
Percent Remaining (Whole blood stability; Human Whole Blood, 15 min): 108%
Percent Remaining (Whole blood stability; Human Whole Blood, 30 min): 68%
Percent Remaining (Whole blood stability; Human Whole Blood, 60 min): 61%
Percent Remaining (Whole blood stability; Human Whole Blood, 120 min): 35%
half-life at 0.5 μM (Whole blood stability; both sexes, whole blood (sodium heparin), pH 7.4, Human Whole Blood): 1.23 h
Signal used (USP2a): 1959 3H counts per min
Z-Score (USP2a): 3.7
Signal used (UbE2T): 1812 3H counts per min
Z-Score (UbE2T): 3.2
